Assay results: patent US20100010022A1, “CANCER TREATMENT METHOD” (SmithKline Beecham Corporation, priority 2004, published 2010)
Marks after values point to notes of the source that are not given here.

Experiments:
[1] = test system: BT474 (human breast tumor line); assay: BT474 subcutaneous human xenograft mouse model, tumor growth; format: in vivo, SCID mice; conditions: for tumor growth inhibition: monotherapy, FIG. 1, range over doses
Experimental: The BT474 xenografts were maintained by serial transplantation of tumor fragments in SCID mice. Tumors are initiated by injection of tumor fragments subcutaneously in the axillary region.
(§1) For the xenograft models used here, solid tumors were measured by electronic caliper measurement through the skin. Measurements were typically made twice weekly.
Drugs were administered by P.O. route. […] These studies were performed under IACUC #468 and 603. The results are illustrated in Tables 1-4, and FIGS. 1 and 2. FIGS. 1 and 2 are the graphical representation of the data contained in Tables 3 and 4, respectively.
The column labeled “Exp. 1” contains the results presented in FIG. 1 for the last data point on the graph. The column labeled “Exp. 2” contains analogous results from an independent experiment. Data are presented as percent inhibition of tumor growth, as compared to vehicle.

[2] = test system: NCI-H322 (non-small cell lung carcinoma); assay: NCI H322 subcutaneous human xenograft mouse model, tumor growth; format: in vivo, SCID mice; conditions: for tumor growth inhibition: monotherapy, FIG. 2, range over doses
Experimental: NCI H322 cells obtained from the ATCC and were cultured in RPMI 1640+10% Fetal bovine serum, Sodium pyruvate and L-Glutamine at […] in a 95/5% air/CO2 atmosphere. Cells were harvested following trypsin digestion and brought to a density of 2×10^6 cells/200 μl in PBS. Tumors were initiated by injection of the cell suspension subcutaneously in the axillary region. In addition some experiments were performed following serial transplantation of tumor fragments in SCID mice. Tumors were initiated by injection of tumor fragments subcutaneously in the axillary region.
as §1
Drugs were administered by P.O. route. […] These studies were performed under IACUC #468 and 603.
Data are presented as percent inhibition of tumor growth, as compared to vehicle.

[3] = Exp. 1, Example 1 30 mg/kg P.O. once daily
[4] = Exp. 1, Example 1 100 mg/kg P.O. once daily
[5] = Exp. 2, Example 1 30 mg/kg P.O. once daily
[6] = Exp. 2, Example 1 100 mg/kg P.O. once daily
[7] = Exp. 1, Example 3 60 mg/kg P.O. once daily

Cc1ccc(Nc2nccc(N(C)c3ccc4c(C)n(C)nc4c3)n2)cc1S(N)(=O)=O [Example 1, 5-({4-[(2,3-dimethyl-2H-indazol-6-yl)(methyl)amino]pyrimidin-2-yl}amino)-2-methylbenzenesulfonamide]
Mean tumor volume ([1]; Day 36, Ex. 1 30 mg/kg): 281 mm^3
Mean tumor volume ([1]; Day 36, Ex. 1 100 mg/kg): 293 mm^3
Mean tumor volume ([1]; Day 38, Ex. 1 30 mg/kg): 406 mm^3
Mean tumor volume ([1]; Day 38, Ex. 1 100 mg/kg): 417 mm^3
Mean tumor volume ([1]; Day 41, Ex. 1 30 mg/kg): 481 mm^3
Mean tumor volume ([1]; Day 41, Ex. 1 100 mg/kg): 453 mm^3
Mean tumor volume ([1]; Day 44, Ex. 1 30 mg/kg): 601 mm^3
Mean tumor volume ([1]; Day 44, Ex. 1 100 mg/kg): 519 mm^3
Mean tumor volume ([1]; Day 49, Ex. 1 30 mg/kg): 722 mm^3
Mean tumor volume ([1]; Day 49, Ex. 1 100 mg/kg): 519 mm^3
Mean tumor volume ([1]; Day 52, Ex. 1 30 mg/kg): 777 mm^3
Mean tumor volume ([1]; Day 52, Ex. 1 100 mg/kg): 515 mm^3
Mean tumor volume ([1]; Day 55, Ex. 1 30 mg/kg): 860 mm^3
Mean tumor volume ([1]; Day 55, Ex. 1 100 mg/kg): 496 mm^3
Mean tumor volume ([1]; Day 57, Ex. 1 30 mg/kg): 954 mm^3
Mean tumor volume ([1]; Day 57, Ex. 1 100 mg/kg): 513 mm^3
percent inhibition of tumor growth, as compared to vehicle [1, 3]: 16%
percent inhibition of tumor growth, as compared to vehicle [1, 4]: 78* %
percent inhibition of tumor growth, as compared to vehicle [1, 5]: 47* %
percent inhibition of tumor growth, as compared to vehicle [1, 6]: 64* %
tumor growth inhibition [1]: 16-78%
Mean tumor volume ([2]; Day 29, Ex. 1 30 mg/kg): 182 mm^3
Mean tumor volume ([2]; Day 29, Ex. 1 100 mg/kg): 166 mm^3
Mean tumor volume ([2]; Day 34, Ex. 1 30 mg/kg): 351 mm^3
Mean tumor volume ([2]; Day 34, Ex. 1 100 mg/kg): 268 mm^3
Mean tumor volume ([2]; Day 37, Ex. 1 30 mg/kg): 358 mm^3
Mean tumor volume ([2]; Day 37, Ex. 1 100 mg/kg): 266 mm^3
Mean tumor volume ([2]; Day 41, Ex. 1 30 mg/kg): 329 mm^3
Mean tumor volume ([2]; Day 41, Ex. 1 100 mg/kg): 316 mm^3
Mean tumor volume ([2]; Day 44, Ex. 1 30 mg/kg): 309 mm^3
Mean tumor volume ([2]; Day 44, Ex. 1 100 mg/kg): 312 mm^3
Mean tumor volume ([2]; Day 48, Ex. 1 30 mg/kg): 377 mm^3
Mean tumor volume ([2]; Day 48, Ex. 1 100 mg/kg): 297 mm^3
Mean tumor volume ([2]; Day 51, Ex. 1 30 mg/kg): 389 mm^3
Mean tumor volume ([2]; Day 51, Ex. 1 100 mg/kg): 313 mm^3
percent inhibition of tumor growth, as compared to vehicle [2, 3]: 34%
percent inhibition of tumor growth, as compared to vehicle [2, 4]: 56* %
percent inhibition of tumor growth, as compared to vehicle [2, 5]: 20%
percent inhibition of tumor growth, as compared to vehicle [2, 6]: 62%
percent inhibition of tumor growth, as compared to vehicle ([2]; Exp. 3, Example 1 30 mg/kg P.O. once daily): 86* %
percent inhibition of tumor growth, as compared to vehicle ([2]; Exp. 3, Example 1 100 mg/kg P.O. once daily): 88* %
tumor growth inhibition [2]: 86-88%

CS(=O)(=O)CCNCc1ccc(-c2ccc3ncnc(Nc4ccc(OCc5cccc(F)c5)c(Cl)c4)c3c2)o1 [Example 3, N-{3-Chloro-4-[(3-fluorobenzyl)oxy]phenyl}-6-[5-({[2-(methanesulphonyl)ethyl]amino}methyl)-2-furyl]-4-quinazolinamine]
Mean tumor volume ([1]; Day 36, Ex. 3 60 mg/kg): 235 mm^3
Mean tumor volume ([1]; Day 36, Ex. 3 200 mg/kg): 219 mm^3
Mean tumor volume ([1]; Day 38, Ex. 3 60 mg/kg): 328 mm^3
Mean tumor volume ([1]; Day 38, Ex. 3 200 mg/kg): 262 mm^3
Mean tumor volume ([1]; Day 41, Ex. 3 60 mg/kg): 367 mm^3
Mean tumor volume ([1]; Day 41, Ex. 3 200 mg/kg): 184 mm^3
Mean tumor volume ([1]; Day 44, Ex. 3 60 mg/kg): 485 mm^3
Mean tumor volume ([1]; Day 44, Ex. 3 200 mg/kg): 242 mm^3
Mean tumor volume ([1]; Day 49, Ex. 3 60 mg/kg): 554 mm^3
Mean tumor volume ([1]; Day 49, Ex. 3 200 mg/kg): 288 mm^3
Mean tumor volume ([1]; Day 52, Ex. 3 60 mg/kg): 633 mm^3
Mean tumor volume ([1]; Day 52, Ex. 3 200 mg/kg): 270 mm^3
Mean tumor volume ([1]; Day 55, Ex. 3 60 mg/kg): 763 mm^3
Mean tumor volume ([1]; Day 55, Ex. 3 200 mg/kg): 219 mm^3
Mean tumor volume ([1]; Day 57, Ex. 3 60 mg/kg): 878 mm^3
Mean tumor volume ([1]; Day 57, Ex. 3 200 mg/kg): 214 mm^3
percent inhibition of tumor growth, as compared to vehicle [1, 7]: 21%
percent inhibition of tumor growth, as compared to vehicle ([1]; Exp. 1, Example 3 200 mg/kg P.O. once daily): 99* %
percent inhibition of tumor growth, as compared to vehicle ([1]; Exp. 2, Example 3 60 mg/kg P.O. once daily): 58* %
percent inhibition of tumor growth, as compared to vehicle ([1]; Exp. 2, Example 3 200 mg/kg P.O. once daily): 85* %
tumor growth inhibition [1]: 21-99%
Mean tumor volume ([2]; Day 29, Ex. 3 20 mg/kg): 167 mm^3
Mean tumor volume ([2]; Day 29, Ex. 3 60 mg/kg): 175 mm^3
Mean tumor volume ([2]; Day 34, Ex. 3 20 mg/kg): 288 mm^3
Mean tumor volume ([2]; Day 34, Ex. 3 60 mg/kg): 252 mm^3
Mean tumor volume ([2]; Day 37, Ex. 3 20 mg/kg): 403 mm^3
Mean tumor volume ([2]; Day 37, Ex. 3 60 mg/kg): 313 mm^3
Mean tumor volume ([2]; Day 41, Ex. 3 20 mg/kg): 511 mm^3
Mean tumor volume ([2]; Day 41, Ex. 3 60 mg/kg): 400 mm^3
Mean tumor volume ([2]; Day 44, Ex. 3 20 mg/kg): 616 mm^3
Mean tumor volume ([2]; Day 48, Ex. 3 20 mg/kg): 837 mm^3
Mean tumor volume ([2]; Day 48, Ex. 3 60 mg/kg): 577 mm^3
Mean tumor volume ([2]; Day 51, Ex. 3 20 mg/kg): 871 mm^3
Mean tumor volume ([2]; Day 51, Ex. 3 60 mg/kg): 649 mm^3
percent inhibition of tumor growth, as compared to vehicle [2, 7]: 75* %
percent inhibition of tumor growth, as compared to vehicle ([2]; Exp. 2, Example 3 20 mg/kg P.O. once daily): 31%
percent inhibition of tumor growth, as compared to vehicle ([2]; Exp. 3, Example 3 20 mg/kg P.O. once daily): 28%
percent inhibition of tumor growth, as compared to vehicle ([2]; Exp. 3, Example 3 60 mg/kg P.O. once daily): 54%
tumor growth inhibition [2]: 28-54%
